From the NIST ThermoML archive (doi:10.1016/j.jct.2009.07.018)
± gives the expanded uncertainty stated by the source.

Columns and labels:
[1] = Maximal bubble pressure
[2] = xn = mol fraction of the nth substance listed; conditions: Maximal bubble pressure

## CCCCCCCCCC [decane]
[1]; 293.15 K
  surface tension liquid-gas: 23.83 ± 0.26 mN/m
[1]; 303.15 K
  surface tension liquid-gas: 22.91 ± 0.26 mN/m
[1]; 313.15 K
  surface tension liquid-gas: 21.91 ± 0.25 mN/m
[1]; 323.15 K
  surface tension liquid-gas: 21.07 ± 0.25 mN/m
[1]; 333.15 K
  surface tension liquid-gas: 20.15 ± 0.25 mN/m
[1]; 343.15 K
  surface tension liquid-gas: 19.23 ± 0.24 mN/m

## CCCCCCC [heptane]
[1]; 283.15 K
  surface tension liquid-gas: 21.11 ± 0.25 mN/m
[1]; 293.15 K
  surface tension liquid-gas: 20.12 ± 0.25 mN/m
[1]; 303.15 K
  surface tension liquid-gas: 19.13 ± 0.24 mN/m
[1]; 313.15 K
  surface tension liquid-gas: 18.11 ± 0.24 mN/m
[1]; 323.15 K
  surface tension liquid-gas: 17.15 ± 0.23 mN/m

## CCCCC [pentane]
[1]; 293.15 K
  surface tension liquid-gas: 15.94 ± 0.23 mN/m
[1]; 298.15 K
  surface tension liquid-gas: 15.3 ± 0.22 mN/m
[1]; 305.15 K
  surface tension liquid-gas: 14.36 ± 0.22 mN/m
[1]; 318.15 K
  surface tension liquid-gas: 12.6 ± 0.21 mN/m
[1]; 323.15 K
  surface tension liquid-gas: 11.95 ± 0.21 mN/m

## CCCCC [pentane] + CCCCCCC
[2]; 293.15 K, x1 = 0.165
  surface tension liquid-gas: 19.62 ± 0.24 mN/m
[2]; 293.15 K, x1 = 0.308
  surface tension liquid-gas: 19.11 ± 0.24 mN/m
[2]; 293.15 K, x1 = 0.432
  surface tension liquid-gas: 18.6 ± 0.24 mN/m
[2]; 293.15 K, x1 = 0.542
  surface tension liquid-gas: 18.15 ± 0.24 mN/m
[2]; 293.15 K, x1 = 0.64
  surface tension liquid-gas: 17.71 ± 0.23 mN/m
[2]; 293.15 K, x1 = 0.727
  surface tension liquid-gas: 17.29 ± 0.23 mN/m
[2]; 293.15 K, x1 = 0.877
  surface tension liquid-gas: 16.65 ± 0.23 mN/m
[2]; 293.15 K, x1 = 0.971
  surface tension liquid-gas: 16.08 ± 0.23 mN/m
[2]; 298.15 K, x1 = 0.165
  surface tension liquid-gas: 18.98 ± 0.24 mN/m
[2]; 298.15 K, x1 = 0.308
  surface tension liquid-gas: 18.5 ± 0.24 mN/m
[2]; 298.15 K, x1 = 0.432
  surface tension liquid-gas: 17.9 ± 0.24 mN/m
[2]; 298.15 K, x1 = 0.542
  surface tension liquid-gas: 17.35 ± 0.23 mN/m
[2]; 298.15 K, x1 = 0.64
  surface tension liquid-gas: 16.9 ± 0.23 mN/m
[2]; 298.15 K, x1 = 0.727
  surface tension liquid-gas: 16.48 ± 0.23 mN/m
[2]; 298.15 K, x1 = 0.877
  surface tension liquid-gas: 15.85 ± 0.23 mN/m
[2]; 298.15 K, x1 = 0.971
  surface tension liquid-gas: 15.29 ± 0.22 mN/m
[2]; 305.15 K, x1 = 0.165
  surface tension liquid-gas: 18.16 ± 0.24 mN/m
[2]; 305.15 K, x1 = 0.308
  surface tension liquid-gas: 17.64 ± 0.23 mN/m
[2]; 305.15 K, x1 = 0.432
  surface tension liquid-gas: 17.13 ± 0.23 mN/m
[2]; 305.15 K, x1 = 0.542
  surface tension liquid-gas: 16.64 ± 0.23 mN/m
[2]; 305.15 K, x1 = 0.64
  surface tension liquid-gas: 16.17 ± 0.23 mN/m
[2]; 305.15 K, x1 = 0.727
  surface tension liquid-gas: 15.74 ± 0.23 mN/m
[2]; 305.15 K, x1 = 0.877
  surface tension liquid-gas: 14.97 ± 0.22 mN/m
[2]; 305.15 K, x1 = 0.971
  surface tension liquid-gas: 14.49 ± 0.22 mN/m
[2]; 318.15 K, x1 = 0.165
  surface tension liquid-gas: 16.91 ± 0.23 mN/m
[2]; 318.15 K, x1 = 0.308
  surface tension liquid-gas: 16.24 ± 0.23 mN/m
[2]; 318.15 K, x1 = 0.432
  surface tension liquid-gas: 15.66 ± 0.23 mN/m
[2]; 318.15 K, x1 = 0.542
  surface tension liquid-gas: 15.1 ± 0.22 mN/m
[2]; 318.15 K, x1 = 0.64
  surface tension liquid-gas: 14.57 ± 0.22 mN/m
[2]; 318.15 K, x1 = 0.727
  surface tension liquid-gas: 14.08 ± 0.22 mN/m
[2]; 318.15 K, x1 = 0.877
  surface tension liquid-gas: 13.23 ± 0.22 mN/m
[2]; 318.15 K, x1 = 0.971
  surface tension liquid-gas: 12.7 ± 0.21 mN/m
[2]; 323.15 K, x1 = 0.165
  surface tension liquid-gas: 16.33 ± 0.23 mN/m
[2]; 323.15 K, x1 = 0.308
  surface tension liquid-gas: 15.55 ± 0.23 mN/m
[2]; 323.15 K, x1 = 0.432
  surface tension liquid-gas: 14.88 ± 0.22 mN/m
[2]; 323.15 K, x1 = 0.542
  surface tension liquid-gas: 14.4 ± 0.22 mN/m
[2]; 323.15 K, x1 = 0.64
  surface tension liquid-gas: 13.93 ± 0.22 mN/m
[2]; 323.15 K, x1 = 0.727
  surface tension liquid-gas: 13.41 ± 0.22 mN/m
[2]; 323.15 K, x1 = 0.877
  surface tension liquid-gas: 12.6 ± 0.21 mN/m
[2]; 323.15 K, x1 = 0.971
  surface tension liquid-gas: 12.12 ± 0.21 mN/m

## O [water]
[1]; 293.15 K
  surface tension liquid-gas: 72.84 ± 0.42 mN/m
[1]; 298.15 K
  surface tension liquid-gas: 72.03 ± 0.42 mN/m
[1]; 303.15 K
  surface tension liquid-gas: 71.24 ± 0.41 mN/m
[1]; 308.15 K
  surface tension liquid-gas: 70.44 ± 0.41 mN/m
[1]; 313.15 K
  surface tension liquid-gas: 69.61 ± 0.41 mN/m
[1]; 323.15 K
  surface tension liquid-gas: 67.96 ± 0.4 mN/m
